Here are results for one molecule from publication PMC11257039, “VCP activator reverses nuclear proteostasis defects and enhances TDP-43 aggregate clearance in multisystem proteinopathy models” (The Journal of Clinical Investigation, 2024).

“And” between values parts separate entries of the source, which are not always exact repeats. Identical values can stand only once. Residues, ends and D or L forms follow the SMILES beside them. *: point of attachment. Cbz = O=C(OCc1ccccc1)*

Holding throughout (assay type): cell-based
Assay [1] concerns A232E HeLa cells expressing TDP-4FL. Nature of the assay: Immunofluorescence of TDP-4FL inclusion morphology, A232E HeLa. Here is the method:
(§1) HeLa Cells were plated onto glass coverslips and transfected with TDP-4FL using Fugene HD for 24 hours. Cells were fixed with 4% paraformaldehyde (Electron Microscopy Sciences), permeabilized with 0.1% Triton-X (Thermo Fisher Scientific), and blocked with 2% FBS DPBS. Primary antibodies were diluted in 2% FBS DPBS. Cells were stained with 300 nM DAPI, and coverslips were mounted onto glass slides using ProLong Glass Antifade Mountant (Thermo Fisher Scientific). Confocal images were obtained using a Leica TCS SPE laser scanning confocal microscope. Primary antibodies used include mouse anti-Myc (9E10), rabbit anti-Myc (ab9106), mouse anti-VCP (NB120-11433), and mouse anti-ubiquitin (ST1200, Millipore) with Alexa Flour 488 or 568 (Invitrogen) as secondary antibodies. […]
(§2) morphologies with MG132 treatment.
(§3) (A) High power magnification immunofluorescence confocal images of HeLa cells expressing TDP-4FL stained for myc-TDP (green) Scale bar, 5 µm. (B) Immunofluorescence confocal images of HeLa cells treated with or without 5% 1’6-Hexanediol for 10 minutes stained for myc-TDP (green) or DAPI (blue). Scale bar, 5 µm. (C) Representative confocal microscopy immunofluorescence confocal images of HeLa cells […]
(§4) yellow represent cells that were categorized as anisosome morphology. Nuclei outline in white represent cells that were categorized as aggregate morphology. Cells with approximately more than 50% anisosome inclusions were categorized as anisosome morphology whereas cells with approximately more than 50% aggregate-like inclusions were categorized as aggregate morphology. Binucleate cells were excluded from the total counts. Scale bar, 10 µm.
(§5) (1 picture or pasted object on this page, not shown here)

Assay [2] deals with R155H HeLa cells expressing TDP-4FL. Nature of the assay: Immunofluorescence of TDP-4FL inclusion morphology, R155H HeLa. On the procedure:
as §1, §2, §3, §4, §5

Assay [3] concerns WT HeLa cells expressing TDP-4FL. Nature of the assay: Immunofluorescence of TDP-4FL inclusion morphology, WT HeLa. The settings on record: for Proportion of Morphology: Aggregate / Proportion of Morphology: Anisosome: WT. Here is the method:
HeLa Cells were plated onto glass coverslips and transfected with TDP-4FL using Fugene HD for 24 hours. Cells were fixed with 4% paraformaldehyde (Electron Microscopy Sciences), permeabilized with 0.1% Triton-X (Thermo Fisher Scientific), and blocked with 2% FBS DPBS. Primary antibodies were diluted in 2% FBS DPBS. Cells were stained with 300 nM DAPI, and coverslips were mounted onto glass slides using ProLong Glass Antifade Mountant (Thermo Fisher Scientific). Confocal images were obtained using a Leica TCS SPE laser scanning confocal microscope.
(A) High power magnification immunofluorescence confocal images of HeLa cells expressing TDP-4FL stained for myc-TDP (green) Scale bar, 5 µm. […]
(C) Representative confocal microscopy immunofluorescence confocal images of HeLa cells […]
as §4, §5

For `CC(C)C[C@@H](C=O)NC(=O)[C@H](CC(C)C)NC(=O)[C@H](CC(C)C)NC(=O)OCc1ccccc1` [MG132] (Cbz-Leu-Leu-Leu-aldehyde), the “Proportion of Morphology: Aggregate” value was 0.604 and 0.568 and 0.630 and 0.595 in assay [1] (MG132 3 hours); 0.766 and 0.785 and 0.833 in assay [1] (MG132 6 hours); 0.608 and 0.623 and 0.684 and 0.640 in assay [2] (MG132 3 hours); 0.768 and 0.744 and 0.727 in assay [2] (MG132 6 hours); 0.538 and 0.500 and 0.591 and 0.474 in assay [3] (MG132 3 hours); 0.636 and 0.719 and 0.766 in assay [3] (MG132 6 hours). For the same molecule, the “Proportion of Morphology: Anisosome” value was 0.396 and 0.432 and 0.370 and 0.405 in assay [1] (MG132 3 hours); 0.234 and 0.215 and 0.167 in assay [1] (MG132 6 hours); 0.392 and 0.377 and 0.316 and 0.360 in assay [2] (MG132 3 hours); 0.232 and 0.256 and 0.273 in assay [2] (MG132 6 hours); 0.462 and 0.500 and 0.409 and 0.526 in assay [3] (MG132 3 hours); 0.364 and 0.281 and 0.234 in assay [3] (MG132 6 hours). The “TDP-4FL inclusion size and morphology upon proteasome inhibition” value in assay [3] (4 μM MG132, 1 μM ixazomib or 1 μM epoxomicin, 3 or 6 hours) is given as “coalesced into larger, irregularly shaped aggregates”.
